The numbers were not newly measured in patent US8883846B2, “Synthesis of bicyclic compounds and method for their use as therapeutic agents” (priority 2010, dated 2014), which cites them from elsewhere.

The data set has as its system influenza A H1N1 viruses, neuraminidase mutation Q136K. Particulars: Australian and South East Asian influenza A H1N1 viruses; cited from earlier work.

In the case of `CCC(CC)[C@H](NC(C)=O)[C@@H]1[C@H](O)[C@@H](C(=O)O)C[C@H]1N=C(N)N` [peramivir], the reduction in susceptibility is 70 fold.

For `CC(=O)N[C@H]1[C@H]([C@H](O)[C@H](O)CO)OC(C(=O)O)=C[C@@H]1N=C(N)N` [zanamivir], the reduction in susceptibility is recorded as 300 fold.
